Experimental data from PubChem BioAssay (NCI).
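These data come from cells grown in 96-well plates and exposed to compound for 48 hours at five concentrations. TGI: concentration producing complete growth inhibition.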

Tests used:
Experiment in all cases: NCI tumour cell line growth inhibition, 48 h
U251 CNS = tested on: U251 CNS
TK-10 renal = tested on: TK-10 renal
HCT-15 colon = tested on: HCT-15 colon
HOP-62 NSCLC = tested on: HOP-62 NSCLC
CAKI-1 renal = tested on: CAKI-1 renal
OVCAR-3 ovarian = tested on: OVCAR-3 ovarian
NCI-H226 lung = tested on: NCI-H226 lung
RPMI-8226 leukemia = tested on: RPMI-8226 leukemia
SNB-75 CNS = tested on: SNB-75 CNS
NCI/ADR-RES ovarian = tested on: NCI/ADR-RES ovarian
IGROV1 ovarian = tested on: IGROV1 ovarian
RXF 393 renal = tested on: RXF 393 renal
DU-145 prostate = tested on: DU-145 prostate
EKVX NSCLC = tested on: EKVX NSCLC
M14 melanoma = tested on: M14 melanoma
A498 renal = tested on: A498 renal
NCI-H522 lung = tested on: NCI-H522 lung
T-47D breast = tested on: T-47D breast
SK-MEL-2 melanoma = tested on: SK-MEL-2 melanoma
HCT-116 colon = tested on: HCT-116 colon
A549 NSCLC = tested on: A549 NSCLC
MALME-3M melanoma = tested on: MALME-3M melanoma
SW-620 colon = tested on: SW-620 colon
UO-31 renal = tested on: UO-31 renal
KM12 colon = tested on: KM12 colon
HOP-92 NSCLC = tested on: HOP-92 NSCLC
HT29 colon = tested on: HT29 colon
NCI-H460 lung = tested on: NCI-H460 lung
ACHN renal = tested on: ACHN renal
SNB-19 CNS = tested on: SNB-19 CNS
BT-549 breast = tested on: BT-549 breast
SF-539 CNS = tested on: SF-539 CNS
MDA-N = tested on: MDA-N
PC-3 prostate = tested on: PC-3 prostate
UACC-257 melanoma = tested on: UACC-257 melanoma
SN12C renal = tested on: SN12C renal
MDA-MB-435 = tested on: MDA-MB-435
CCRF-CEM leukemia = tested on: CCRF-CEM leukemia
SF-295 CNS = tested on: SF-295 CNS
OVCAR-8 ovarian = tested on: OVCAR-8 ovarian
SK-MEL-5 melanoma = tested on: SK-MEL-5 melanoma
OVCAR-4 ovarian = tested on: OVCAR-4 ovarian
LOX IMVI melanoma = tested on: LOX IMVI melanoma
UACC-62 melanoma = tested on: UACC-62 melanoma
MCF7 breast = tested on: MCF7 breast
COLO 205 colon = tested on: COLO 205 colon
786-0 renal = tested on: 786-0 renal
MDA-MB-231 breast = tested on: MDA-MB-231 breast
HS 578T breast = tested on: HS 578T breast
HCC-2998 colon = tested on: HCC-2998 colon
SF-268 CNS = tested on: SF-268 CNS
NCI-H23 lung = tested on: NCI-H23 lung
SK-MEL-28 melanoma = tested on: SK-MEL-28 melanoma
SK-OV-3 ovarian = tested on: SK-OV-3 ovarian
SR leukemia = tested on: SR leukemia
MOLT-4 leukemia = tested on: MOLT-4 leukemia
OVCAR-5 ovarian = tested on: OVCAR-5 ovarian
HL-60(TB) leukemia = tested on: HL-60(TB) leukemia
K-562 leukemia = tested on: K-562 leukemia

## CCCCN1C(=O)N(c2ccc(OCC)cc2)C2N(CCCC)C1C(C)(C)C2(C)C (stereo not given)
U251 CNS
  TGI: > 100 µM
TK-10 renal
  TGI: 60.2 µM
HCT-15 colon
  TGI: > 100 µM
HOP-62 NSCLC
  TGI: > 100 µM
CAKI-1 renal
  TGI: 93.8 µM
OVCAR-3 ovarian
  TGI: 54 µM
NCI-H226 lung
  TGI: 49.3 µM
RPMI-8226 leukemia
  TGI: 42 µM
SNB-75 CNS
  TGI: > 100 µM
NCI/ADR-RES ovarian
  TGI: 77.6 µM
IGROV1 ovarian
  TGI: > 100 µM
RXF 393 renal
  TGI: 39.1 µM
DU-145 prostate
  TGI: > 100 µM
EKVX NSCLC
  TGI: 50.6 µM
M14 melanoma
  TGI: > 100 µM
A498 renal
  TGI: > 100 µM
NCI-H522 lung
  TGI: > 100 µM
T-47D breast
  TGI: > 100 µM
SK-MEL-2 melanoma
  TGI: > 100 µM
HCT-116 colon
  TGI: > 100 µM
A549 NSCLC
  TGI: > 100 µM
MALME-3M melanoma
  TGI: 73.1 µM
SW-620 colon
  TGI: > 100 µM
UO-31 renal
  TGI: 88.9 µM
KM12 colon
  TGI: > 100 µM
HOP-92 NSCLC
  TGI: 85.1 µM
HT29 colon
  TGI: > 100 µM
NCI-H460 lung
  TGI: > 100 µM
ACHN renal
  TGI: > 100 µM
SNB-19 CNS
  TGI: > 100 µM
BT-549 breast
  TGI: > 100 µM
SF-539 CNS
  TGI: 41.9 µM
MDA-N
  TGI: > 100 µM
PC-3 prostate
  TGI: > 100 µM
UACC-257 melanoma
  TGI: > 100 µM
SN12C renal
  TGI: > 100 µM
MDA-MB-435
  TGI: 97.3 µM
CCRF-CEM leukemia
  TGI: 63.7 µM
SF-295 CNS
  TGI: > 100 µM
OVCAR-8 ovarian
  TGI: > 100 µM
SK-MEL-5 melanoma
  TGI: 67.7 µM
OVCAR-4 ovarian
  TGI: > 100 µM
LOX IMVI melanoma
  TGI: > 100 µM
UACC-62 melanoma
  TGI: 50 µM
MCF7 breast
  TGI: 47.5 µM
COLO 205 colon
  TGI: 70 µM
786-0 renal
  TGI: > 100 µM
MDA-MB-231 breast
  TGI: > 100 µM
HS 578T breast
  TGI: 75.2 µM
HCC-2998 colon
  TGI: > 100 µM
SF-268 CNS
  TGI: 67.7 µM
NCI-H23 lung
  TGI: > 100 µM
SK-MEL-28 melanoma
  TGI: > 100 µM
SK-OV-3 ovarian
  TGI: 57 µM

## COc1cc(/C=C2\C(=O)N(c3ccccc3)C(c3ccccc3)S2(=O)=O)cc(OC)c1OC (stereo not given)
U251 CNS
  TGI: > 100 µM
TK-10 renal
  TGI: > 100 µM
HCT-15 colon
  TGI: > 100 µM
HOP-62 NSCLC
  TGI: > 100 µM
CAKI-1 renal
  TGI: > 100 µM
OVCAR-3 ovarian
  TGI: > 100 µM
NCI-H226 lung
  TGI: > 100 µM
RPMI-8226 leukemia
  TGI: 92.3 µM
NCI/ADR-RES ovarian
  TGI: > 100 µM
RXF 393 renal
  TGI: 92.2 µM
DU-145 prostate
  TGI: > 100 µM
SR leukemia
  TGI: > 100 µM
EKVX NSCLC
  TGI: > 100 µM
M14 melanoma
  TGI: > 100 µM
A498 renal
  TGI: > 100 µM
NCI-H522 lung
  TGI: > 100 µM
T-47D breast
  TGI: > 100 µM
SK-MEL-2 melanoma
  TGI: > 100 µM
HCT-116 colon
  TGI: > 100 µM
A549 NSCLC
  TGI: > 100 µM
MOLT-4 leukemia
  TGI: > 100 µM
MALME-3M melanoma
  TGI: > 100 µM
SW-620 colon
  TGI: > 100 µM
UO-31 renal
  TGI: > 100 µM
KM12 colon
  TGI: > 100 µM
HOP-92 NSCLC
  TGI: > 100 µM
HT29 colon
  TGI: 94.1 µM
NCI-H460 lung
  TGI: > 100 µM
ACHN renal
  TGI: > 100 µM
SNB-19 CNS
  TGI: > 100 µM
BT-549 breast
  TGI: > 100 µM
SF-539 CNS
  TGI: > 100 µM
MDA-N
  TGI: 48.3 µM
UACC-257 melanoma
  TGI: > 100 µM
OVCAR-5 ovarian
  TGI: > 100 µM
SN12C renal
  TGI: > 100 µM
MDA-MB-435
  TGI: > 100 µM
CCRF-CEM leukemia
  TGI: 56.8 µM
SF-295 CNS
  TGI: > 100 µM
OVCAR-8 ovarian
  TGI: > 100 µM
SK-MEL-5 melanoma
  TGI: > 100 µM
OVCAR-4 ovarian
  TGI: > 100 µM
LOX IMVI melanoma
  TGI: > 100 µM
UACC-62 melanoma
  TGI: > 100 µM
MCF7 breast
  TGI: > 100 µM
COLO 205 colon
  TGI: > 100 µM
786-0 renal
  TGI: > 100 µM
MDA-MB-231 breast
  TGI: > 100 µM
HS 578T breast
  TGI: > 100 µM
HCC-2998 colon
  TGI: > 100 µM
HL-60(TB) leukemia
  TGI: > 100 µM
SF-268 CNS
  TGI: > 100 µM
K-562 leukemia
  TGI: > 100 µM
NCI-H23 lung
  TGI: > 100 µM
SK-MEL-28 melanoma
  TGI: > 100 µM
SK-OV-3 ovarian
  TGI: > 100 µM
